In patent US5854244A, “Melamine derivatives for use in the treatment of cancer” (priority 1992, dated 1998):
Like-named read-outs stand apart in the source and are kept apart here.

Experiments:
[1] = system: PC6 murine plasmacytoma; test: MTT cytotoxicity assay, PC6; format: cell-based; conditions: Mus musculus, continual drug exposure, parenthesis = standard deviation or ± values
Experimental: (§1) The cytotoxicity of CB7646 and CB7683 was compared with trimelamol against mammalian tumour cell lines using the MTT assay. This assay is based upon the selective ability of living but not dead cells to reduce the tetrazolium salt MTT (3-[4,5-dimethylthiazol-2-yl]-25-diphenyl tetrazolium bromide) to purple formazan (Mosmann et al, 1983, J. Immun. Methods 65; 55-63; Carmichael et al (1987) Cancer Res. 47; 936-942). Cell lines were grown in culture with continual drug exposure. The IC50 values (in μm) of the compounds (i.e. concentration giving 50% inhibition of cell growth as compared with untreated control) were determined, and are shown in Table 2. Figures in parenthesis refer to standard deviation or ± values for 2 or more measurements.
PC6 murine plasmacytoma

[2] = system: H69 human small cell lung cancer; test: MTT cytotoxicity assay, H69; format: cell-based
Experimental: (§2) The cytotoxicity of CB7646 and CB7683 was compared with trimelamol against mammalian tumour cell lines using the MTT assay. […] Cell lines were grown in culture with continual drug exposure. […] Figures in parenthesis refer to standard deviation or ± values for 2 or more measurements.

[3] = system: CH1 human epithelial ovarian cancer; test: MTT cytotoxicity assay, CH1; format: cell-based; conditions: continual drug exposure, parenthesis = standard deviation or ± values
Experimental: as §1
CH1, 41M human epithelial ovarian cancer

[4] = Dimer/polymer formation in solution (overnight standing); format: physicochemical; conditions: aqueous solution, 4-5 mg/ml, overnight (14-16 hours), room temperature
Experimental: (ii) Dimer/polymer Formation in Solution
An aqueous solution of CB7646 and trimelamol in 4ml aliquots at a concentration of 4-5 mg/ml was left to stand overnight (14-16 hours) at room temperature.

[5] = system: Walker 256 rat mammary carcinoma; test: MTT cytotoxicity assay, Walker 256; format: cell-based
Experimental: as §2

[6] = system: ADJ/PC6 tumour; test: Antitumour activity towards the ADJ/PC6 tumour in mice; format: in vivo; conditions: for % Inhibition (Tumour wt as % of Control Value): 5 consecutive days, day 30; for T.I.: Example 7 (repeat of Example 6); for ED90: Mus musculus
Description: (§3) The anti-tumour activity of CB 7646 prepared in accordance with Example 1 against ADJ/PC6 tumour in mice were compared with that of trimelamol. An implant of 1 mm^3 of tumour was made on day 1. On day 20, animals bearing tumours of comparative size were placed into groups of 4 and treated with drug on 5 consecutive days, and then left until day 30. Tumours from the treated and controls were dissected and weighed as a measure of tumour growth. Compounds were given in 5% DMSO/dextrose.
(§4) Example 6 was repeated to obtain more precise LD50 values.

[7] = Lethality (LD50) in mice; conditions: mouse, in vivo
Description: as §3, §4

[8] = system: PXN65 Xenografts; test: In vivo activity against PXN65 ovarian cancer xenografts; parameters: species or system mice; conditions: for time to tumour regression: treated mice
Experimental: CB7646 was tested in vivo against ovarian cancer xenografts of the PXN65 cell line transplanted into mice, substantially in accordance with Harrap et al, Annals of Oncology, 1990, 1;65-76. PXN65 is a cisplatin-sensitive line.

[9] = Stability in solution (half-life by HPLC)
Experimental: Compounds were dissolved in DMSO to a concentration of 50 mM. Aliquots were then dispersed into the appropriate medium to give a final concentration of 100 μM in a volume of about 10 ml. […] (to simulate room temperature) or at 37° C. in water, 0.9% NaCl or 5% dextrose. Aliquots were removed from each preparation at intervals to assess their stability (i.e. half-life, T^1/2) which was measured using HPLC analysis. This entailed an isocratic elution using a mobile phase comprising 10% acetonitrile, 90% 0.05M ammonium bicarbonate. The 15 cm column was packed with C8 octyl Spherisorb material. The column was encased in a cooling cabinet which was maintained at 14°-17° C. Standards of freshly prepared solutions were run throughout the analysis period by way of controls.
T^1/2 measurements were read from a semi-logarithmic plot of peak area (y) versus time (x).

[10] = Judson et al 1989, 1991; cited from earlier work
[11] = system: ovarian carcinomas; conditions: cited from earlier work
[12] = MTT, continual drug exposure, parenthesis = standard deviation or ± values, read-out: IC50
[13] = WALKER 256, MTT, continual drug exposure, parenthesis = standard deviation or ± values, read-out: IC50
[14] = ADJ/PC6, Example 7 (repeat of Example 6)
[15] = Example 7 (repeat of Example 6)

Row | SMILES | IC50 [1] | IC50 [2, 12] | IC50 [3] | Dimer/polymer formation (precipitate) [4] | IC50 [5, 13] | % Inhibition (Tumour wt as % of Control Value) ([6]; 3.25 mg/kg) | % Inhibition (Tumour wt as % of Control Value) ([6]; 6.25 mg/kg) | % Inhibition (Tumour wt as % of Control Value) ([6]; 12.5 mg/kg) | % Inhibition (Tumour wt as % of Control Value) ([6]; 25 mg/kg) | % Inhibition (Tumour wt as % of Control Value) ([6]; 50 mg/kg) | % Inhibition (Tumour wt as % of Control Value) ([6]; 100 mg/kg) | T.I. [6] | ED90 [6, 14] | LD50 [7, 15] | Deaths ([8]; 15 mg/kg, 20 doses) | GD (Growth delay) ([8]; 15 mg/kg, 20 doses) | time to tumour regression ([8]; PXN65 xenografts) | other results
1 | OCN(CC(F)(F)F)c1nc(NCC(F)(F)F)nc(N(CO)CC(F)(F)F)n1 [CB7683, 2,4-Bis[(hydroxymethyl)(2,2,2 trifluoroethyl)amino]-6-(2,2,2-trifluoroethyl)amino-1,3,5-triazine] | 31.6 µM | 8.9 µM | 40.9 µM | – | – | – | – | – | – | – | – | – | – | – | – | – | – | –
2 | CNc1nc(N(C)CO)nc(N(C)CO)n1 [CB7646, 2,4-Bis[(hydroxymethyl) (methyl)amino]6-methylamino-1,3,5-triazine] | 25.1 µM | 14.7 µM | 35.8 µM | did not form a precipitate | 10.7 µM | 5.6% | -1.0% | 13.7% | 5.6% | 76.8% | 98.0% | 4.6 | 31 mg/kg | 142 mg/kg | 0 | > 140 days | ≤ 28 days | IC50 ([5]; Walker 256, CB7646 prepared by recrystallisation method of Example 2, read-out: IC50 (repeat, recrystallised preparation)): 10.5 µM; IC50 ([2]; CB7646 prepared by recrystallisation method of Example 2, read-out: IC50 (repeat, recrystallised preparation)): 16.5 µM; Therapeutic Index (TI) ([6]; ADJ/PC6 tumour, Example 6): > 1.4; ED90 ([6]; ADJ/PC6, ADJ/PC6 tumour, Example 6): 74 mg/kg; LD50 ([7]; Example 6): > 100 mg/kg; efficacy (summary) ([8]; PXN65 xenografts, relative to trimelamol): comparable efficacy to trimelamol; half-life at 100 µM ([9]; 0.9% nacl, pH 5, T^1/2, 0.9% NaCl, pH 5.0, r.t.): 16 h; half-life at 100 µM ([9]; 5% dextrose, pH 4, T^1/2, 5% Dextrose, pH 4.0, r.t.): 22 h; half-life at 100 µM ([9]; deionised water, pH 7.5, T^1/2, Deionised water, pH 7.5, r.t.): 18 h; half-life at 100 µM ([9]; deionised water, pH 7.5, T^1/2, deionised water, pH 7.5, 37 °C): 3 h; stability (summary of Table 1) ([9]; relative to trimelamol): superior stability
3 | CN(CO)c1nc(N(C)CO)nc(N(C)CO)n1 [Trimelamol, 2,4,6-tris{(hydroxymethyl) (methyl)amino}-1,3,5-triazine, reference compound] | 12.9 µM | 8.5 µM | 23.4 µM | formed a heavy precipitate | 9.4 µM | 0% | 18.2% | 13.7% | 45.5% | 83.9% | 96.0% | 2.9 | 24 mg/kg | 70 mg/kg | 0 | > 170 days | ≤ 28 days | Deaths ([8]; 30 mg/kg, 5 doses): 0; GD (Growth delay) ([8]; 30 mg/kg, 5 doses): > 273 days; polymerisation during Phase I and II clinical trials [10]: proved problematic; half-life of trimelamol activity in humans ([11]; humans, Judson et al 1989): short; clinical activity ([11]; particularly against ovarian carcinomas): clinically active; half-life at 100 µM ([9]; 0.9% nacl, pH 4.9): 4.55 h; half-life at 100 µM ([9]; 5% dextrose, pH 4): 5.8 h; half-life at 100 µM ([9]; deionised water, pH 7.5): 2 h
